Experiments:
hMATE1 [1] = molecular target: T1, hMATE1 (Homo sapiens, UniProt Q96FL8); test: Inhibition of RI-labeled TEA uptake in HEK293 cells expressing hMATE1; details: pH 8
T1 sequence (Q96FL8 1-570): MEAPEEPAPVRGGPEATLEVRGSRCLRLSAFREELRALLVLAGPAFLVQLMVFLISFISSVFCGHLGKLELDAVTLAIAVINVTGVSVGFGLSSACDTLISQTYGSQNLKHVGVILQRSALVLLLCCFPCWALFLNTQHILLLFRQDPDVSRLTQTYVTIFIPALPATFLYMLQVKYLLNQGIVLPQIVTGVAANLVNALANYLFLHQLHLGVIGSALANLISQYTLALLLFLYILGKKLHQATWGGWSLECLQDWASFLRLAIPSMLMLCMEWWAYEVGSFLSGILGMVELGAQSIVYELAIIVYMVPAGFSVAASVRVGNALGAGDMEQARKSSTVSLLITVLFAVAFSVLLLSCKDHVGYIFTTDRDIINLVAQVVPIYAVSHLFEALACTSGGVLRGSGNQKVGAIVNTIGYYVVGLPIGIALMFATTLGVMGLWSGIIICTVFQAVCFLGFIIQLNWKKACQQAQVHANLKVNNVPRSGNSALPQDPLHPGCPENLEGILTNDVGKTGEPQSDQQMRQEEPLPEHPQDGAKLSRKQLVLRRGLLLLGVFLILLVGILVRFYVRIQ

hMATE1 [2] = molecular target: T1, hMATE1; details: 1 mM 14C-TEA, pH of extracellular fluid varied, FIG. 12
hMATE1 [3] = molecular target: T1, hMATE1; details: read-out: Km value of transport; substrate transport, cells expressing wild type MATE1 (TEA: FIG. 9(c)); MPP: MATE1, species not stated
mMATE1 = molecular target: T2, mMATE1 (Mus musculus, UniProt Q8K0H1); test: Inhibition of RI-labeled TEA uptake in HEK293 cells expressing mMATE1; format: cell-based; details: compound 5 mM; 50 μM RI-labeled TEA, pH 8.0, HEK293 cells expressing mMATE1;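 also: transfected HEK293 cells held 5 min at 37 °C before tracer addition, uptake read as radioactivity retained on a 0.45-µm membrane filter, mean ± SD of three to nine experiments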
T2 construct: expressed in transfected cells; host or cells: HEK293
T2 sequence (Q8K0H1 with tags, fused parts or gaps): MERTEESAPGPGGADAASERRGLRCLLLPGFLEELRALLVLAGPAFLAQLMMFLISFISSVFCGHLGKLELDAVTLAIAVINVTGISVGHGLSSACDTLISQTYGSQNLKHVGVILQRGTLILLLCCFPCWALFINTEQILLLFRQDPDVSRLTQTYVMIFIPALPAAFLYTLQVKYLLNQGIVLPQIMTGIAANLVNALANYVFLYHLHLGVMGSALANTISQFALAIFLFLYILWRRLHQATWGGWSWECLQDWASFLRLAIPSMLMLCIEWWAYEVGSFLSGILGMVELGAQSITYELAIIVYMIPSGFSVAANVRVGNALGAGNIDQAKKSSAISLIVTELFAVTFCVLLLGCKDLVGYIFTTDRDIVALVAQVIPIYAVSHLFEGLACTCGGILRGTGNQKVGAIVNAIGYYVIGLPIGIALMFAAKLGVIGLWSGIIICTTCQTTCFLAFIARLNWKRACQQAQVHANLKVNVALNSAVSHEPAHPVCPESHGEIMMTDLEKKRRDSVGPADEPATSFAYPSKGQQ

SMILES: CC[N+](CC)(CC)CC [TEA, tetraethylammonium]
- TEA uptake activity percent taking the level with addition of no compound as 100% (% ± S.D.) (hMATE1 [1]): 0.7 ± 1.8%
- Uptake of TEA into liposome containing MATE polypeptide (in words) (hMATE1 [2]): pH-dependent uptake of TEA was observed
- Km (hMATE1 [3]): 220 µM
- TEA uptake activity percent taking the level with addition of no compound as 100% (% ± S.D.) (mMATE1): 0.0 ± 7. %
